Here are results for 11 molecules from ChEMBL document CHEMBL1201862, “PubChem BioAssay data set” (2004).

Common to all, as to assay: NCI-60 cell line screen, 48 h
Assay [1] deals with BT-549.
Assay [2] deals with EKVX.
Assay [3] deals with HCC 2998.
Assay [4] relates to HCT-15.
Assay [5] deals with HOP-62.
Assay [6] concerns HOP-92.
The subject of assay [7] is LOX IMVI.
Assay [8] deals with M14.
Assay [9] has as its system MDA-MB-435.
For assay [10], the system named is MOLT-4.
Assay [11] deals with Malme-3M.
The subject of assay [12] is NCI-H226.
Assay [13] has as its system NCI-H522.
Assay [14] deals with RPMI-8226.
The subject of assay [15] is SK-MEL-5.
In assay [16] the test system is SW-620.
For assay [17], the system named is U-251.
In assay [18] the test system is UACC-62.
Assay [19] relates to UO-31.

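Following 48 hours of exposure in 96-well plates, responses at five concentrations were used to interpolate endpoints linearly. Here, GI50 denotes the concentration required for 50% inhibition of growth.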 Active and inactive are the calls of the source. No stated cut-off is given here; in the data, active = GI50 up to about 1.1 µM and inactive = higher. Bounds are passed on as bounds.

Regarding `O=C(c1ccc([N+](=O)[O-])cc1)N1CCCC1`, the GI50 in assay [1] was > 100 µM (inactive); in [2], > 100 µM (inactive); in assay [3], > 100 µM (inactive); in assay [4] it was > 100 µM; in [5] it was > 100 µM (inactive); in assay [6], > 100 µM (inactive). The GI50 in [7], in assay [8], in assay [9], in assay [10], in assay [11] and in assay [12] was > 100 µM (inactive) each time. The GI50 in assay [13] is > 100 µM (inactive); in assay [14] it was > 100 µM (inactive); in assay [15], > 100 µM (inactive); in assay [16], > 100 µM (inactive); in [17] it was > 100 µM (inactive); in assay [18], 66.1 µM (inactive). Also, the GI50 in assay [19] was > 100 µM (inactive).

For `O=C1/C(=C/c2ccco2)N=C(c2ccccc2)N1c1ccc(S(=O)(=O)Nc2nccs2)cc1`, the GI50 was > 100 µM (inactive) in [1]; 33.2 µM (inactive) in assay [2]; > 100 µM (inactive) in assay [3]; 28.9 µM in assay [4]; > 100 µM (inactive) in assay [5]; 73.8 µM (inactive) in assay [6]. The GI50 was > 100 µM (inactive) in assay [7]; > 100 µM (inactive) in assay [8]; > 100 µM (inactive) in assay [9]; 43.4 µM (inactive) in assay [10]; > 100 µM (inactive) in [11]; > 100 µM (inactive) in assay [12]. Also, the GI50 in assay [13] was 30.9 µM (inactive); in [14], 41.7 µM (inactive); in [15], 87.9 µM (inactive); in assay [16], > 100 µM (inactive); in [17], 71.9 µM (inactive); in [18], 93.5 µM (inactive). Also, the GI50 in [19] is 57.1 µM (inactive).

As to `Cc1cc(-c2nc3ccc(F)cc3s2)ccc1NC(=O)C(N)CCCCN` (stereo not drawn), the GI50 in assay [1] was 14.4 µM (inactive); in assay [2], 12.6 µM (inactive); in assay [3], 1.26 µM (inactive); in assay [4], 9.08 µM; in assay [5] it was 3.22 µM (inactive); in [6], 8.2 µM (inactive). Also, the GI50 in assay [7] is 2.3 µM (inactive); in [8], 3.29 µM (inactive); in assay [9], 2.17 µM (inactive); in assay [10], 2.34 µM (inactive); in assay [11], 18.2 µM (inactive); in assay [12], 2.44 µM (inactive). Moreover, the GI50 in assay [13] was 5.9 µM (inactive); in assay [14], 3.31 µM (inactive); in [15], 9.68 µM (inactive); in [16], 2.9 µM (inactive); in assay [17], 2.11 µM (inactive); in assay [18], 10.8 µM (inactive). Besides, the GI50 in [19] was 2.69 µM (inactive).

As for `CN1C(=O)c2ccccc2C(O)(c2ccccc2)C1(O)c1ccccc1` (stereo not drawn), the GI50 in assay [1] is 81.1 µM (inactive); in assay [2], 81.5 µM (inactive); in [3] it was 87.9 µM (inactive); in assay [4], > 100 µM; in [5], > 100 µM (inactive); in assay [6], 14.4 µM (inactive). Further, the GI50 was > 100 µM (inactive) in assay [7]; > 100 µM (inactive) in assay [8]; > 100 µM (inactive) in [9]; 48.1 µM (inactive) in [10]; > 100 µM (inactive) in [11]; > 100 µM (inactive) in assay [12]. Further, the GI50 in assay [13] is > 100 µM (inactive); in [14], 56.4 µM (inactive); in assay [15] it was 74.6 µM (inactive); in assay [16] it was > 100 µM (inactive); in [17], > 100 µM (inactive); in [18], 64.4 µM (inactive). In addition, the GI50 in [19] was 32.5 µM (inactive).

`CC1(C)CCCCCCCCCC(C)(CCCCCCCCCCCCO)C1=O` (stereo not drawn): the GI50 is 16.6 µM (inactive) in assay [1]; 19.3 µM (inactive) in [2]; 0.655 µM (active) in assay [3]; 21.7 µM in assay [4]; 22.5 µM (inactive) in assay [5]; 16.9 µM (inactive) in assay [6]. Moreover, the GI50 was 17.6 µM (inactive) in assay [7]; 17.7 µM (inactive) in [9]; 27.2 µM (inactive) in assay [10]; 16.4 µM (inactive) in [11]; 9.84 µM (inactive) in assay [12]; 16.5 µM (inactive) in [13]. The GI50 in assay [14] was 18.7 µM (inactive); in assay [15], 19.5 µM (inactive); in assay [16], 18.3 µM (inactive); in [17] it was 17.8 µM (inactive); in [18], 18.3 µM (inactive); in assay [19], 18 µM (inactive).

Regarding `CC1OC(n2cnc3c(N)nc(Cl)nc32)C(C)(O)C1O` (stereo not drawn), the GI50 in assay [1] is > 25 µM (inactive); in assay [2], > 25 µM (inactive); in [3], > 25 µM (inactive); in [4], > 25 µM; in [5], > 25 µM (inactive); in assay [6], > 25 µM (inactive). Further, the GI50 in assay [7], in assay [8], in assay [9], in [10], in [11] and in [12] was > 25 µM (inactive) in each case. The GI50 in assay [13] was > 25 µM (inactive); in assay [14] it was > 25 µM (inactive); in assay [15] it was > 25 µM (inactive); in [16] it was > 25 µM (inactive); in [18], > 25 µM (inactive); in assay [19] it was 16.7 µM (inactive).

For `CCC(c1ccccc1)c1cc(C(C)(C)C)cc(C(C)(C)C)c1O` (stereo not drawn), the GI50 is 19.3 µM (inactive) in assay [1]; 17.8 µM (inactive) in assay [2]; 15.8 µM (inactive) in assay [3]; 16.8 µM in assay [4]; 16.2 µM (inactive) in assay [5]; 16.5 µM (inactive) in [6]. For the same molecule, the GI50 in assay [7] was 18 µM (inactive); in assay [8], 18.6 µM (inactive); in [9], 18.2 µM (inactive); in [11], 13.9 µM (inactive); in assay [12] it was 18.9 µM (inactive); in assay [13], 13.7 µM (inactive). Further, the GI50 in assay [14] was 13.6 µM (inactive); in assay [15], 18.1 µM (inactive); in assay [16] it was 16.5 µM (inactive); in assay [17], 17.7 µM (inactive); in [18], 18 µM (inactive); in assay [19], 18.4 µM (inactive).

For `CC(C)(CCCCC(C)(C)NCC1COc2ccccc2O1)NCC1COc2ccccc2O1` (stereo not drawn), the GI50 in assay [1] was > 10 µM (inactive); in assay [2], > 10 µM (inactive); in assay [3] it was 2.42 µM (inactive); in assay [4] it was 7.98 µM; in assay [5], > 10 µM (inactive); in [6], 2.19 µM (inactive). The GI50 is 3.33 µM (inactive) in assay [7]; 1.76 µM (inactive) in assay [8]; 1.81 µM (inactive) in assay [9]; > 10 µM (inactive) in assay [10]; 3.15 µM (inactive) in assay [11]; > 10 µM (inactive) in assay [12]. The GI50 in assay [13] was 5.51 µM (inactive); in assay [14], > 10 µM (inactive); in [15] it was 1.6 µM (inactive); in assay [16], 9.75 µM (inactive); in assay [17], 4.47 µM (inactive); in [18], 3.43 µM (inactive).

Take `COCn1cnc2c(=O)n(-c3ccc(C)cc3)c(=S)n(-c3ccc(C)cc3)c21`: the GI50 in [1] was > 100 µM (inactive); in assay [2], > 100 µM (inactive); in [3], > 100 µM (inactive); in assay [4] it was > 100 µM; in assay [5] it was > 100 µM (inactive); in assay [6] it was 71.8 µM (inactive). The GI50 in assay [7], in assay [8], in assay [9], in assay [10], in assay [11] and in [12] was > 100 µM (inactive) each time. Also, the GI50 in assay [13], in assay [14], in [15], in assay [16], in [17] and in [18] was > 100 µM (inactive) each time. The GI50 in assay [19] was 38.6 µM (inactive).

For `O=Cc1ccc2c(c1)CC1(C2)Cc2ccc3c(c2C1)CCC3` (stereo not drawn), the GI50 in [1] is 5.05 µM (inactive); in assay [2], 24.3 µM (inactive); in assay [3], 24.3 µM (inactive); in [4], 8.51 µM; in assay [5], 9.4 µM (inactive); in assay [6] it was 17 µM (inactive). For the same molecule, the GI50 in assay [7] is 4.73 µM (inactive); in assay [8] it was 7 µM (inactive); in [9] it was 2.46 µM (inactive); in [10] it was 6.41 µM (inactive); in [11] it was 6.22 µM (inactive); in assay [12] it was 16.3 µM (inactive). The GI50 in assay [13] was 34.8 µM (inactive); in [14] it was 6.47 µM (inactive); in [15] it was 4.81 µM (inactive); in assay [16], 3.98 µM (inactive); in assay [17], 8.51 µM (inactive); in assay [18], 6.56 µM (inactive). In addition, the GI50 in assay [19] is 11.9 µM (inactive).

Take `COc1c(O)cc(C(=O)O[C@@H]2Cc3c(O)cc(O)cc3O[C@@H]2c2cc(O)c(O)c(O)c2)cc1O`: the GI50 in assay [1] was 25.3 µM (inactive); in [2], 24.8 µM (inactive); in assay [3], 97.1 µM (inactive); in [4], 26.5 µM; in [5] it was 30.7 µM (inactive); in assay [6], > 100 µM (inactive). Moreover, the GI50 in [7] was 19.7 µM (inactive); in assay [8], 59.4 µM (inactive); in [9] it was 17.4 µM (inactive); in assay [10] it was 24.2 µM (inactive); in assay [11] it was > 100 µM (inactive); in assay [13], 24.4 µM (inactive). For the same molecule, the GI50 in [14] was 24.3 µM (inactive); in assay [15], 26.7 µM (inactive); in assay [16] it was 28.2 µM (inactive); in [18], 25.8 µM (inactive); in assay [19], 23 µM (inactive).
